Assay results reported in EP0851766B1, “METHOD FOR ANALYZING THE IMMUNOS[…] OF ION CHANNEL BLOCKERS USING THE MINI-PIG” (MERCK & CO., INC., priority 1995, dated 1997).
Where two headings read alike, the source gives them in different places.

Assays:
[1] = test system: mixed lymphocyte reaction; assay: Mixed lymphocyte reaction (pig); format: cell-based
Excerpt: Mini-swine was recently selected to validate the concept that blocking the voltage activated K+ channels (Kv1.3) is a target for immunomodulation.

pig mononuclear cells = assay: In vitro PMA/ionomycin induced proliferation of mononuclear cells ([3H]thymidine incorporation); format: cell-based
mononuclear cells = assay: Ex vivo PMA/ionomycin-induced proliferation of mononuclear cells after in vivo infusion; set-up: species or system Yucatan mini-pig; details: 25 µg in 30 ml of vehicle infused over 2.5 h
[2] = Blood pressure and heart rate during infusion; format: in vivo, Yucatan mini-pig; details: during infusion of 25 µg over 2.5 h
Protocol: A Yucatan mini-pig received 25 µg of margatoxin in 30 ml of vehicle (5% autologous serum in 1:1 saline to PBS solution) over 2.5 h. […] Margatoxin was undetectable in the plasma in 24 h. Plasma level of MgTX was determined in a competition binding assay, by its inhibition of ^125I-labeled MgTX binding to Kv1.3 channels present in isolated plasma membranes. […] Similar pharmokinetic study was performed six times, with good correlations between high plasma levels of margatoxin and the lower response to PMA/ION. Yucatan mini-pigs receiving vehicle had no significant fluctuation of responses to PMA/ION. Therefore, this ex vivo test provides an assessment of the in vivo biological effect of margatoxin and can also be used to study the immunosuppressant effects of other ion channel blockers.

[3] = test system: mixed lymphocyte reaction; details: mouse; cited from earlier work
[4] = 25 µg infused over 2.5 h
[5] = test system: mixed lymphocyte reaction; details: rat; cited from earlier work
[6] = test system: mixed lymphocyte reaction; details: rabbit; cited from earlier work
[7] = test system: mixed lymphocyte reaction; details: guinea pig; cited from earlier work
[8] = biological target: T1, Kv1.3 channels of the pig T cells (Sus scrofa, UniProt A0A5G2QN06); details: electrophysiological analyses, unpublished communication from Reid Leonard; cited from earlier work
T1 construct: endogenous in cells; host or cells: pig T cells
T1 sequence (A0A5G2QN06 1-588): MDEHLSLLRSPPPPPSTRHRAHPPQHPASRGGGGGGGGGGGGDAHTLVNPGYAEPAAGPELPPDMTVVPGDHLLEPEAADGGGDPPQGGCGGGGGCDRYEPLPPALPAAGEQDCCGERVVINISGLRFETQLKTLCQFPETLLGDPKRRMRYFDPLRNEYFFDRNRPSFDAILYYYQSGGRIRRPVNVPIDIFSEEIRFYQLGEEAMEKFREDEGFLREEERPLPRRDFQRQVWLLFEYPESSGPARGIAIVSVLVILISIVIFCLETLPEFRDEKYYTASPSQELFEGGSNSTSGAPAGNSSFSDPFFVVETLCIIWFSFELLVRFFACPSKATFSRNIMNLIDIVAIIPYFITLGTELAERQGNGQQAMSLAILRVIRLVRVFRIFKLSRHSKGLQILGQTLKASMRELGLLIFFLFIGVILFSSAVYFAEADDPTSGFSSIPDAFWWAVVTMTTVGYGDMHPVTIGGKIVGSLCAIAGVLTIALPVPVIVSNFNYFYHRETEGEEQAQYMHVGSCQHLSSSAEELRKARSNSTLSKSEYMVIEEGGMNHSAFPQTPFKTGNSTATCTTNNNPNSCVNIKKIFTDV

Margatoxin
inhibition of the mixed lymphocyte reaction [1]: inhibit
PMA/ionomycin (ION) induced proliferation (pig mononuclear cells; pig mononuclear cells, in vitro): equally inhibited
suppression of the proliferative response to PMA/ION (pig mononuclear cells; whole blood spiked with Margatoxin): significant suppression
Unresponsiveness to PMA/ION, duration sustained post-infusion (mononuclear cells): 4.5 h
Unresponsiveness to PMA/ION, time of maximum (mononuclear cells): maximal at the end of infusion
rise in blood pressure [2]: no significant rise
rise in heart rate [2]: no significant rise
inhibition of the mixed lymphocyte reaction [3]: not inhibited
Plasma level ([4]; in 24 h): undetectable
half-life ([4]; plasma): about 2 h
Cmax ([4]; read-out: Plasma level, peak, at the end of infusion): 0.6 nM
concentration ([4]; read-out: Plasma level, at 4.5 h post-infusion): 0.1 nM
inhibition of the mixed lymphocyte reaction [5]: not inhibited
inhibition of the mixed lymphocyte reaction [6]: not inhibited
inhibition of the mixed lymphocyte reaction [7]: not inhibited
block of the Kv1.3 channels [8]: block
